The EC50 is the concentration needed to bring the measured effect to its halfway point. The Emax is the greatest response seen or fitted, relative to the assay's reference.

For the assay, the target named is T1, recombinant human AMPK complex, containing α2β1γ2 (Homo sapiens, UniProt P54646+Q9Y478).
T1 construct: hsAMPKα2-552-His, hsAMPKβ1-2-270 and hsAMPKγ-2-569 respectively; hsAMPKβ1-2-270; hsAMPKγ-2-569; His (C); made in house; host or cells: Spodoptera frugiperda Sf21 (baculovirus)
Nature of the assay: AMPK in vitro activation assay (HTRF). The class given is biochemical. The following applies: for EC50: HTRF, recombinant human α2β1γ2 AMPK, 200 μM ATP, biotinylated ACC-CREBp peptide, repeat determinations on separate lines; for Emax: potentiation of AMPK activity as percent over the basal signal (without compound). On the procedure: The recombinant human AMPK complex, containing α2β1γ2 was obtained from baculovirus expression system and generated by cotransfection in Spodoptera frugiperda 21 (Sf21). […] were produced in serum free medium (SF900 II, Invitrogen) for 82 hours after a triple infection at a multiplicity of infection (M.O.I.) of 0.05, 0.06 and 0.045 for hsAMPKα2-552-His, hsAMPKβ1-2-270 and hsAMPKγ-2-569 respectively. Cells were harvested by centrifugation at 1,000×g for 10 minutes at 4° C. and stored at −80° C. The insect cell pellet from 8 liters of culture was resuspended and homogenized in 580 ml of lysis buffer (20 mM Hepes pH 7.5, 150 mM NaCl, 10 mM imidazole, 50 mM NaF, 10% Glycerol and supplemented with EDTA free proteases inhibitor cocktail Roche). The AMPK complex was partially purified using an affinity chromatography under a Ni-NTA Agarose column equilibrated in the lysis buffer and eluted with a gradient (0 to 400 mM) of Imidazol.
A homogeneous time-resolved fluorescence (HTRF) assay was used (Li et al, Anal. Biochem. (2003) 321, 151-156) to identify compounds with stimulating activity for the recombinant human AMPK. Enzyme reaction was performed into a 96-well microtiter plate. First, 20 μL of test compounds in 0.5% DMSO were dispensed followed by 10 μL of protein in 50 mM HEPES buffer at pH 7.0, 100 mM NaCl, 5 mM MgCl2, 0.01% BSA, 0.8 mM DTT. After, 30 min incubation at room temperature, the reaction was initiated by the addition of 10 μL of a solution containing 200 μM of ATP as donor substrate, 2 μM or 0.08 μM of biotinylated ACC-CREBp peptide (PolyPeptide) as acceptor. Plates were then incubated 45 min at 37° C. The reaction was terminated by the addition of 40 μl detection mixture containing Eu^3+ cryptate-conjugated anti-pS^133-CREB antibody and streptavidine-XL665 (CisBio). Plates were further incubated for 2 h30 at room temperature. The fluorescence signal was measured using an Envision multireader (Perkin Elmer). The non-specific signal was obtained without substrates. Potentiation of AMPK activity was expressed as a percent over the basal signal (without compound) from which an EC50 value was determined.
The EC50 of a graded dose response curve represents the concentration of a compound where 50% of its maximal effect is observed.

Where a name gives a salt, the structure may show the parent alone.

T1 sequence (P54646 2-552): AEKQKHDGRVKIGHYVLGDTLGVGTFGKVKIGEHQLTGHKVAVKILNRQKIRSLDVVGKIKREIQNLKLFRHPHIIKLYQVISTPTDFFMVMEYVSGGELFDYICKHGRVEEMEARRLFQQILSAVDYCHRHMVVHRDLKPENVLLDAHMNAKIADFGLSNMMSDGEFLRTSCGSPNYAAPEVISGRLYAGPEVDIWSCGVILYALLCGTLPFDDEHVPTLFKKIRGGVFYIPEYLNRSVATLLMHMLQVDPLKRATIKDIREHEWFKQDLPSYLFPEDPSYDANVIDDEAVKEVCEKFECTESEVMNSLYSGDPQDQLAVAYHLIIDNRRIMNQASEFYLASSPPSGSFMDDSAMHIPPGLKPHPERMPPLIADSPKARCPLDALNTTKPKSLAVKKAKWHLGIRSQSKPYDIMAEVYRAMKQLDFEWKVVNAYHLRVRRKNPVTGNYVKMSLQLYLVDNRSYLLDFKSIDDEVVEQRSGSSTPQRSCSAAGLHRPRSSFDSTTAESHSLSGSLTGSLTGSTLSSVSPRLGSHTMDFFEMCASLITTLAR
T1 sequence (Q9Y478 2-270): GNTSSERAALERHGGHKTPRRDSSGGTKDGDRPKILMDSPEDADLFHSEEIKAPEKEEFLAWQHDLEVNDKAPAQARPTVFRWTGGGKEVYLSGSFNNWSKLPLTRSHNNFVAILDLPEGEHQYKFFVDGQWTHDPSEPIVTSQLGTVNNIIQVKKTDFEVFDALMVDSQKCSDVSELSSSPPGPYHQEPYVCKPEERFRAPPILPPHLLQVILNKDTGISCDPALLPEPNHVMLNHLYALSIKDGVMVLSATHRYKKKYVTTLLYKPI
T1 sequence (Q9UGJ0 2-569 partner limits assumed): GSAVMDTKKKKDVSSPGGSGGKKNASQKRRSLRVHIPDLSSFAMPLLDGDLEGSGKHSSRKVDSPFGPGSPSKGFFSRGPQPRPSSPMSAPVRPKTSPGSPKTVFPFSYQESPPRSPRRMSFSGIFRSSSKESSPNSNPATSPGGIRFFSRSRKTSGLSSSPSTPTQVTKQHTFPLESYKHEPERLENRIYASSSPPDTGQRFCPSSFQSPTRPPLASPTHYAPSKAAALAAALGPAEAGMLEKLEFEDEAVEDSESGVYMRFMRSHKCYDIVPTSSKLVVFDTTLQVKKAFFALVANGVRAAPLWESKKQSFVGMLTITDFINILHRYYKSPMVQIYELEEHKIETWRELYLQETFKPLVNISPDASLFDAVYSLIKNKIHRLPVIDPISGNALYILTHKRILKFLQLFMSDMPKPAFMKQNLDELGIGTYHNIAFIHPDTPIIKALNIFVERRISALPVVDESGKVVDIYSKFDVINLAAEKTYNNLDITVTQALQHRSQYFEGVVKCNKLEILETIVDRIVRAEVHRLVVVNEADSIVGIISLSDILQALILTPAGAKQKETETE

In the case of `COc1cccc(-c2ccc(-c3cc4c(cc3Cl)NC(=O)C4=C(O)c3cnc(C)s3)cc2)c1O` [Compound 51, 6-Chloro-5-(2′-hydroxy-3′-methoxy-biphenyl-4-yl)-3-[1-hydroxy-1-(2-methyl-thiazol-5-yl)-methylidene]-1,3-dihydro-indol-2-one], the EC50 was 11 nM and the Emax was 129%.
The matching figures for `O=C1Nc2cc(Cl)c(-c3ccc(C4=CCOCC4)cc3)cc2C1=C(O)c1cccc(F)c1` [Compound 52, 6-Chloro-5-[4-(3,6-dihydro-2H-pyran-4-yl)-phenyl]-3-[1-(3-fluoro-phenyl)-1-hydroxy-methylidene]-1,3-dihydro-indol-2-one]: 120 nM and 147%.
The matching figures for `Cn1ccc(C(O)=C2C(=O)Nc3cc(Cl)c(-c4ccc(N5CCOCC5)cc4)cc32)n1` [Compound 53, 6-Chloro-3-[1-hydroxy-1-(1-methyl-1H-pyrazol-3-yl)-methylidene]-5-(4-morpholin-4-yl-phenyl)-1,3-dihydro-indol-2-one]: 1710 nM and 180%.
The matching figures for `COc1ccc(-c2cc3c(cc2Cl)NC(=O)C3=C(O)c2cc(C)no2)cc1F` [Compound 55, 6-Chloro-5-(3-fluoro-4-methoxy-phenyl)-3-[1-hydroxy-1-(3-methyl-isoxazol-5-yl)-methylidene]-1,3-dihydro-indol-2-one]: 430 nM and 174%.
With `Cc1cc(C(O)=C2C(=O)Nc3cc(Cl)c(-c4ccc(F)cc4O)cc32)on1` [Compound 56, 6-Chloro-5-(4-fluoro-2-hydroxy-phenyl)-3-[1-hydroxy-1-(3-methyl-isoxazol-5-yl)-methylidene]-1,3-dihydro-indol-2-one], the EC50 is 150 nM and the Emax amounted to 189%.
In the case of `Cc1cc(C(O)=C2C(=O)Nc3cc(Cl)c(-c4ccc(OC(F)(F)F)cc4)cc32)on1` [Compound 58, 6-Chloro-3-[1-hydroxy-1-(3-methyl-isoxazol-5-yl)-methylidene]-5-(4-trifluoromethoxy-phenyl)-1,3-dihydro-indol-2-one], the EC50 was found to be 1400 nM and the Emax was 212%.
The matching figures for `O=C1Nc2cc(Cl)c(-c3ccc(N4CCOCC4)cc3)cc2C1=C(O)c1ccno1` [Compound 59, 6-Chloro-3-[1-hydroxy-1-isoxazol-5-yl-methylidene]-5-(4-morpholin-4-yl-phenyl)-1,3-dihydro-indol-2-one]: 29 nM and 245%.
As to `Cc1nocc1C(O)=C1C(=O)Nc2cc(Cl)c(-c3ccc(N4CCOCC4)cc3)cc21` [Compound 60, 6-Chloro-3-[1-hydroxy-1-(3-methyl-isoxazol-4-yl)-methylidene]-5-(4-morpholin-4-yl-phenyl)-1,3-dihydro-indol-2-one], the EC50 was 770 nM and the Emax came to 298%.
The matching figures for `O=C1Nc2cc(Cl)c(-c3ccc(N4CCOCC4)cc3)cc2C1=C(O)c1cc(C2CC2)on1` [Compound 62, 6-Chloro-3-[1-(5-cyclopropyl-isoxazol-3-yl)-1-hydroxy-methylidene]-5-(4-morpholin-4-yl-phenyl)-1,3-dihydro-indol-2-one]: 98 nM and 254%.
The matching figures for `Cc1cc(C(O)=C2C(=O)Nc3cc(Cl)c(-c4ccc(Cl)cc4)cc32)on1` [Compound 63, 6-Chloro-5-(4-chloro-phenyl)-3-[1-hydroxy-1-(3-methyl-isoxazol-5-yl)-methylidene]-1,3-dihydro-indol-2-one]: 4020 nM and 134%.
The matching figures for `CCc1ccc(-c2cc3c(cc2Cl)NC(=O)C3=C(O)c2cc(C)no2)cc1` [Compound 64, 6-Chloro-5-(4-ethyl-phenyl)-3-[1-hydroxy-1-(3-methyl-isoxazol-5-yl)-methylidene]-1,3-dihydro-indol-2-one]: 1630 nM and 141%.
On to `Cc1cc(C(O)=C2C(=O)Nc3cc(Cl)c(-c4ccc(-c5ccco5)cc4)cc32)on1` [Compound 65, 6-Chloro-5-(4-furan-2-yl-phenyl)-3-[1-hydroxy-1-(3-methyl-isoxazol-5-yl)methylidene]-1,3-dihydro-indol-2-one], for which the EC50 stood at 120 nM and the Emax came out at 113%.
As to `CCOc1ccc(-c2cc3c(cc2Cl)NC(=O)C3=C(O)c2cc(C)no2)cc1` [Compound 66, 6-Chloro-5-(4-ethoxy-phenyl)-3-[1-hydroxy-1-(3-methyl-isoxazol-5-yl)-methylidene]-1,3-dihydro-indol-2-one], the EC50 is 3070 nM and the Emax is 192%.
`COc1cc(C(O)=C2C(=O)Nc3cc(Cl)c(-c4ccc(C5=CCOCC5)cc4)cc32)on1` [Compound 67, 6-Chloro-5-[4-(3,6-dihydro-2H-pyran-4-yl)phenyl]-3-[1-hydroxy-1-(3-methoxy-isoxazol-5-yl)methylidene]-1,3-dihydro-indol-2-one]: the EC50 was found to be 3 nM and the Emax was 192%.
The matching figures for `Cc1cc(C(O)=C2C(=O)Nc3cc(Cl)c(-c4ccc(C5CCCO5)cc4)cc32)on1` (centres unmarked) [Compound 68, 6-Chloro-3-[1-hydroxy-1-(3-methyl-isoxazol-5-yl)methylidene]-5-[4-(tetrahydro-furan-2-yl)phenyl]-1,3-dihydro-indol-2-one]: 150 nM and 208%.
As for `Cc1cc(C(O)=C2C(=O)Nc3cc(Cl)c(-c4ccc(OCCCN5CCNCC5)cc4)cc32)on1` [Compound 69, 6-Chloro-3-[1-hydroxy-1-(3-methyl-isoxazol-5-yl)methylidene]-5-[4-(3-piperazin-1-yl-propoxy)phenyl]-1,3-dihydro-indol-2-one, hydrochloride], the EC50 turned out to be 8 nM and the Emax came to 134%.
As for `Cc1cc(C(O)=C2C(=O)Nc3cc(Cl)c(-c4ccc(OCCCN5CCN(C)CC5)cc4)cc32)on1` [Compound 70, 6-Chloro-3-[1-hydroxy-1-(3-methyl-isoxazol-5-yl)methylidene]-5-{4-[3-(4-methyl-piperazin-1-yl)-propoxy]-phenyl}-1,3-dihydro-indol-2-one, hydrochloride], the EC50 was 88 nM and the Emax amounted to 142%.
The matching figures for `COc1cc(C(O)=C2C(=O)Nc3cc(F)c(-c4ccc(-c5cccc(OC)c5O)cc4)cc32)on1` [Compound 71, 6-Fluoro-5-(2′-hydroxy-3′-methoxy-biphenyl-4-yl)-3-[1-hydroxy-1-(3-methoxy-isoxazol-5-yl)methylidene]-1,3-dihydro-indol-2-one]: 2 nM and 158%.
The matching figures for `Cc1cc(C(O)=C2C(=O)Nc3cc(F)c(-c4ccc(C5(CO)CC5)cc4)cc32)on1` [Compound 72, 6-Fluoro-5-[4-(1-hydroxymethyl-cyclopropyl)phenyl]-3-[1-hydroxy-1-(3-methyl-isoxazol-5-yl)methylidene]-1,3-dihydro-indol-2-one]: 2 nM and 159%.
The matching figures for `O=C1Nc2cc(Cl)c(-c3ccc(C4(CO)CC4)cc3)cc2C1=C(O)c1cc(Br)no1` [Compound 73, 3-[1-(3-Bromo-isoxazol-5-yl)-1-hydroxy-methylidene]-6-chloro-5-[4-(1-hydroxymethyl-cyclopropyl)phenyl]-1,3-dihydro-indol-2-one]: 6 nM and 148%.
On to `Cc1cc(C(O)=C2C(=O)Nc3cc(Cl)c(-c4ccc(N5CCN(C)CC5)cc4)cc32)on1` [Compound 74, 6-Chloro-3-[1-hydroxy-1-(3-methyl-isoxazol-5-yl)methylidene]-5-[4-(4-methyl-piperazin-1-yl)-phenyl]-1,3-dihydro-indol-2-one, hydrochloride], for which the EC50 was determined as 112 nM and the Emax is 213%.
In the case of `Cc1ncc(C(O)=C2C(=O)Nc3cc(Cl)c(-c4ccc(C5(CO)CC5)cc4)cc32)s1` [Compound 75, 6-Chloro-5-[4-(1-hydroxymethyl-cyclopropyl)phenyl]-3-[1-hydroxy-1-(2-methyl-thiazol-5-yl)methylidene]-1,3-dihydro-indol-2-one], the EC50 was 1 nM and the Emax was found to be 142%.
